1 molecule from patent US10702506B2, “Small molecule inhibitors of pendrin ion exchange and pharmaceutical compositions” (THE REGENTS OF THE UNIVERSITY OF CALIFORNIA, priority 2016, dated 2020) can be followed below.

The subject of this assay is HBE and CFBE cell cultures. Nature of the assay: ASL depth by confocal imaging of rhodamine B-dextran in HBE and CFBE cultures. To be noted: 25 μM, 4-6 hours. The format is cell-based, human. On the procedure:
ASL depth was measured in HBE and CFBE cell cultures under basal conditions and with chronic IL-13-treatment. […] Treatment of HBE and CFBE cell cultures with IL-13 produced a significant increase in ASL depth to ˜16 μm. Remarkably, treatment of IL-13-treated HBE and CFBE cell cultures with PDSinh-A01 produced a significant further increase in ASL depth of ˜8 μm (FIG. 6A, right; summary in FIG. 6B). Pendrin inhibition thus causes ASL hydration in IL-13-treated HBE and CFBE cell cultures, providing pharmacological evidence for pendrin as a key regulator of ASL hydration in airway cell cultures exposed to an inflammatory stimulant.
ASL depth was measured by confocal imaging of rhodamine B-dextran fluorescence (20 μl of 0.1 mg/ml in PBS) applied 4-6 h prior to measurement. Scanning confocal microscopy was done using an upright Nikon EZ-C1 confocal microscope equipped with a LUMplan FL N 60×/1.00w objective (Olympus, Waltham, Mass.). […] In some experiments ASL depth was measured after treatment with 25 μM PDSinh-A01 in the culture medium for 4-6 hours. ASL depth was measured using a multi-point histogram method in which each confocal z-stack was fitted to a quadratic function, as described and validated previously.

For `Cn1nc(COc2cccc(F)c2)c2c1CCN(C(=O)Nc1ccc(Cl)cc1)C2` [PDSinh-A01], where the note is “IL-13-treated”, the “further increase in ASL depth, IL-13-treated cultures” value is about 8 μm. Further, the “effect on ASL depth, basal conditions” value (no IL-13) is given as “did not significantly change”.
